Columns and labels:
[1] = test system: chicken chorioallantoic membrane (CAM); experiment: Effect of LQC-T on CAM angiogenesis (CAM method, vessel count); assay type: in vivo; details: 20 μg/chicken embryo
Experimental: Embryonated chicken eggs of Lohmann of German, egg weight 50-60 g (embryo experiment center of Chinese Agriculture University)
LQC-T (1-6) (prepared by the methods of examples 2-7), wherein the purity was ≧98%, determined by high performance liquid chromatography (HPLC), meeting the requirements of the experiment. The powder was carefully sealed and preserved at 4° C.
Aseptic gelatin sponge, which was made into a wafer having a diameter of 5 mm by a hole-puncher in advance, was used as sample carrier. The prepared LQC-T series compounds were added according to 20 μg/chicken embryo in an aseptic environment. The 0.9% physiological saline was used in a blank group. The samples were air-dried in an aseptic environment.
A hatching egg after disinfection was put into a 37° C. incubation box with air sac upward until the seventh day of incubation. The egg embryo was disinfected using alcohol at a super clean bench, and then a small hole was drilled at the top of the egg embryo using a dental drill, and the nearby egg shell and shell membrane were removed carefully to form the opening with the size of about 1.2 cm×1.2 cm. After spotting the location for applying the sample, the air sac was broken with injection needle at the interface between air sac and the yolk and then 1-2 drops of aseptic physiological saline was injected so that the air sac membrane was separated from CAM membrane. Then the upper air sac membrane was slightly removed with a nipper to expose the lower CAM membrane.
The medicine-containing carrier was softly put by a nipper at the locations of CAM and yolk cyst membrane with fewer vessels, the opening was then sealed with aseptic transparent tape and incubation was continued for another 72 h.
After the incubation, the transparent tape blocking the chicken embryo air sac was removed with a nipper. The liquid of equal-volumetrically mixed methanol/acetone 1-2 ml was added and fixed at room temperature for 10 min. The CAM membrane was carefully removed and put it onto a slide. Then it was observed and a photograph was taken. The effect of the compounds on angiogenesis was evaluated by the count analytic method using the numbers of great vessels, medium vessels and small vessels arranged radially around by the carrier.
All the data were statistically analyzed using SPSS11.0 software pack. The difference between the administration group and the blank group was given through one-way variance analysis. P<0.05 had statistical significance.

ICR white mice = experiment: Acute toxic experiment of mice by oral administration; assay type: in vivo, mouse; design: key to Animal reaction in 14 days after the administration: appearance / Animal reaction in 14 days after the administration: behavior / Animal reaction in 14 days after the administration: hair / Animal reaction in 14 days after the administration: respiration / Animal reaction in 14 days after the administration: posture / Animal reaction in 14 days after the administration: reaction: ✓ means normal; details: for Animal reaction in 14 days after the administration: death: 10 animals; for Animal reaction in 14 days after the administration: death / Animal reaction in 14 days after the administration: appearance / Animal reaction in 14 days after the administration: behavior / Animal reaction in 14 days after the administration: hair / Animal reaction in 14 days after the administration: posture / Animal reaction in 14 days after the administration: reaction / Animal reaction in 14 days after the administration: respiration: oral 3 x 1800 mg/kg (5400 mg/kg) in one day
Experimental: ICR white mice (half female and half male, 18-22 g, experiment animal certificate No.: SCXK (Jing) 2006-0009);
LQC-T4 (white powder (self made); and LQC-T4 4500 mg was dissolved into 0.5% sodium carboxymethyl cellulose 100 ml and then suspended by supersonic wave. The suspension was used in situ).
The qualified animals were quarantined and weighed before the administration. The animals were divided into groups randomly by weight. The intragastric administration tool was used for mice to carry out the intragastric administration. The mice were fasted but not water-deprived (continuously for 14 h) overnight before being administrated. The mice were administrated at 9:00 AM for the first time (1800 mg/kg) on the present administration day and observed continuously for 1 h. The mice were administrated for the second time (1800 mg/kg) at an interval of 6 h since the first administration and observed continuously for 1 h. The mice were administrated for the third time (1800 mg/kg) at an interval of 6 h since the second administration, observed continuously for 1 h and then the mice were fed.

Q: For `COc1cc(C(=O)OCc2nc(C)c(C)nc2C)ccc1OCc1nc(C)c(C)nc1C` [LQC-T4, (3,5,6-trimethylpyrazine-2-yl)methyl 3-methoxy-4-((3,5,6-trimethylpyrazine-2-yl)methoxy) benzoate], which “small vessel angiogenesis of CAM model, Medicine group (X ± S)” value ([1]; 72 h incubation, number of small vessels, blank group 8.67 ± 1.03) is on record?
A: 14.4 ± 2.16

Q: And the “effect on growth of new (small) vessels compared with the blank group” value ([1]; result in words)?
A: significant promoting effect

Q: And the “Animal reaction in 14 days after the administration: death” value (ICR white mice; mice ♀)?
A: 0

Q: What about the “Animal reaction in 14 days after the administration: appearance” value (ICR white mice; mice ♀) of the same compound?
A: ✓

Q: What about the “Animal reaction in 14 days after the administration: behavior” value (ICR white mice; mice ♀) of the same compound?
A: ✓

Q: And the “Animal reaction in 14 days after the administration: hair” value (ICR white mice; mice ♀)?
A: ✓

Q: What about the “Animal reaction in 14 days after the administration: posture” value (ICR white mice; mice ♀) of the same compound?
A: ✓

Q: And the “Animal reaction in 14 days after the administration: reaction” value (ICR white mice; mice ♀)?
A: ✓

Q: And the “Animal reaction in 14 days after the administration: respiration” value (ICR white mice; mice ♀)?
A: ✓

Q: And the “Animal reaction in 14 days after the administration: death” value (ICR white mice; mice ♂)?
A: 0

Q: And the “Animal reaction in 14 days after the administration: appearance” value (ICR white mice; mice ♂)?
A: ✓

Q: What about the “Animal reaction in 14 days after the administration: behavior” value (ICR white mice; mice ♂) of the same compound?
A: ✓

Q: What about the “Animal reaction in 14 days after the administration: hair” value (ICR white mice; mice ♂) of the same compound?
A: ✓

Q: And the “Animal reaction in 14 days after the administration: posture” value (ICR white mice; mice ♂)?
A: ✓

Q: And the “Animal reaction in 14 days after the administration: reaction” value (ICR white mice; mice ♂)?
A: ✓

Q: What about the “Animal reaction in 14 days after the administration: respiration” value (ICR white mice; mice ♂) of the same compound?
A: ✓

Q: And the “death in 12 h after the administration” value (ICR white mice; mice, oral 3 x 1800 mg/kg)?
A: No death was observed

Q: And the “toxic reaction at the maximum dosage” value (ICR white mice; mice, oral, maximum dosage of 5400 mg/kg, observed continuously for 14 days)?
A: No toxic reaction was observed

From patent US8987449B2, “Medicine for treating ischemic brain injury and its sequelae, and preparation method thereof” (Haimin Lei, priority 2011, dated 2015)
